Experimental data as given in US11787792B2, “5-[[4-[[morpholin-2-yl]methylamino]-5-(trifluoromethyl)-2 Pyridyl]Amino]Pyrazine-2-carbonitrile and therapeutic uses thereof” (priority 2012, dated 2023).

What was measured:
Type in all cases: cell-based
HT29 cells [1] = experiment: Cellular potency in Mitosis Inhibition Assay (MIA), checkpoint abrogation after etoposide; details: for IC50: Homo sapiens, HT-29, HT29 cells, etoposide pre-treatment, nocodazole, read-out: CHK1 Cellular Potency MIA IC50; for (fold better) Compound 1, CHK1 cellular potency MIA: fold by which Compound 1 is more potent than the compound; for (fold better) Compound 2, CHK1 cellular potency MIA: fold by which Compound 2 is more potent than the compound
Experimental: Assay 2: Cellular Potency in Mitosis Inhibition Assay (MIA)
Checkpoint abrogation by CHK1 kinase function inhibitors in combination with genotoxic agents was assessed using a europium based ELISA assay designed to quantify the number of cells trapped in mitosis after treatment with a genotoxic agent (to induce G2 arrest) followed by a CHK1 inhibitor test compound in combination with nocodazole to abrogate this arrest. HT29 cells were seeded at 10^4 cells per well into 96-well plates in a volume of 160 μL and left to attach for 36 hours. […] After genotoxic drug exposure, the medium was removed and replaced with fresh medium (160 μL). […] CHK1 inhibitor test compounds were added in 40 μL aliquots using quadruplicate wells for each concentration. After 21 hours exposure, the medium was removed and cells were fixed in 4% formaldehyde in phosphate buffered saline (PBS, pH 7.4, pre-cooled to 4° C.) for 30 minutes at 4° C., followed by 100% methanol (pre-cooled to −20° C.) for 10 minutes at ambient temperature. Wells were washed with PBS and blocked with 5% dried milk (Marvel) in Tris-buffered saline (TBS, pH 7.4) at 37° C. for 30 minutes. Each well was washed three times with water containing 0.1% Tween 20. […] Primary antibody was removed and wells were washed with water containing 0.1% Tween 20.
Europium emissions were counted on a Wallac, Victor2 counter (Perkin-Elmer, Bucks UK).

HT29 cells [2] = experiment: Selectivity in cells for CHK1-dependent checkpoint abrogation versus cytotoxicity (Activity Index = SRB IC50/MIA IC50); details: for (fold better) Compound 1, cellular selectivity: fold by which Compound 1 is more selective than the row's compound; for (fold better) Compound 2, cellular selectivity: fold by which Compound 2 is more selective than the row's compound
Experimental: Assay 3: Assessment of Selectivity in Cells for CHK1-Dependent Checkpoint Abrogation Versus Cytotoxicity
Compound cytotoxicity was assessed using a 96 hour sulforhodamine B assay (SRB, Sigma catalog number S9012). HT29 or SW620 cells were seeded at 1.6 to 3.2×10^3 cells per well in 96-well plates in a volume of 160 μL medium and allowed to attach for 36 hours prior to treatment. […] Cells were incubated for 96 hours (four doublings) at 37° C. in a humidified 5% CO2 environment and then fixed and stained with SRB.
The Activity Index (AI), a measure of the selectivity of the CHK1 inhibitor test compounds for effecting CHK1-dependent checkpoint abrogation versus cytotoxicity was calculated from the ratio of the CHK1 inhibitor cytotoxicity IC50 versus the MIA IC50 (i.e., AI=CHK1 inhibitor SRB IC50/MIA IC50), both measured in HT29 cells.

HT29 cells [3] = experiment: Cellular efficacy in combination with SN38 (SRB potentiation assay); details: SRB IC50/Potentiation IC50, HT29 cells, SN38 at its IC50, 96 hours
Experimental: Assay 4: Cellular Efficacy in HT29 or SW620 Colon Carcinoma Cells in Combination with SN38 or Gemcitabine
HT29 or SW620 cells were seeded at 1.6 to 3.2×10^3 cells per well in 96-well plates in a volume of 160 μL medium and allowed to attach for 36 hours prior to treatment.
The Potentiation Index (PI) was calculated as a measure of the ability of the CHK1 inhibitor to enhance SN38 or gemcitabine cytotoxicity and was defined as the ratio of the Cytotoxicity IC50 of the CHK1 inhibitor alone versus the Potentiation IC50 of the CHK1 inhibitor combined with the genotoxic (i.e., PI=CHK1 inhibitor SRB IC50/Potentiation IC50).

Structure (SMILES): N#Cc1cnc(Nc2cc(NC[C@H]3CNCCO3)c(C(F)(F)F)cn2)cn1 [Compound 1, 5-[[4-[[(2R)-Morpholin-2-yl]methylamino]-5-(trifluoromethyl)-2-pyridyl]amino]pyrazine-2-carbonitrile]
- IC50 (HT29 cells [1]): 30 nM

Structure (SMILES): N#Cc1cnc(Nc2cc(NCC3CNCCO3)c(C(=O)Nc3ccccc3)cn2)cn1 (stereo not shown) [Compound Y-102]
- (fold better) Compound 1, cellular selectivity (HT29 cells [2]): ~5.6 fold
- (fold better) Compound 2, cellular selectivity (HT29 cells [2]): ~33 fold
- IC50 (HT29 cells [1]): 800 nM
- (fold better) Compound 1, CHK1 cellular potency MIA (HT29 cells [1]): ~27 fold
- (fold better) Compound 2, CHK1 cellular potency MIA (HT29 cells [1]): ~44 fold

Structure (SMILES): COCCCc1cnc(Nc2cnc(C#N)cn2)cc1NC[C@H]1CNCCO1 [Compound Y-159]
- IC50 (HT29 cells [1]): 700 nM

Structure (SMILES): COCc1ccc(-c2cnc(Nc3cnc(C#N)cn3)cc2NC[C@H]2CNCCO2)cc1 [Compound Y-156]
- Cell Efficacy + SN38 in HT29 cells (Potentiation Index) (HT29 cells [3]): 1.6 fold
- (fold better) Compound 1, cellular selectivity (HT29 cells [2]): ~4.8 fold
- (fold better) Compound 2, cellular selectivity (HT29 cells [2]): ~28 fold
- IC50 (HT29 cells [1]): 560 nM
- (fold better) Compound 1, CHK1 cellular potency MIA (HT29 cells [1]): ~19 fold
- (fold better) Compound 2, CHK1 cellular potency MIA (HT29 cells [1]): ~31 fold

Structure (SMILES): COC(C)(C)C#Cc1cnc(Nc2cnc(C#N)cn2)cc1NC[C@@H]1CNCCO1 [Compound Y-155]
- Cell Efficacy + SN38 in HT29 cells (Potentiation Index) (HT29 cells [3]): 0.9 fold
- (fold better) Compound 1, cellular selectivity (HT29 cells [2]): ~2.4 fold
- (fold better) Compound 2, cellular selectivity (HT29 cells [2]): ~13 fold
- IC50 (HT29 cells [1]): 120 nM
- (fold better) Compound 1, CHK1 cellular potency MIA (HT29 cells [1]): ~4 fold
- (fold better) Compound 2, CHK1 cellular potency MIA (HT29 cells [1]): ~7 fold

Structure (SMILES): N#Cc1cnc(Nc2cc(NC[C@@H]3CNCCO3)c(C(F)(F)F)cn2)cn1 [Compound 2, 5-[[4-[[(2S)-Morpholin-2-yl]methylamino]-5-(trifluoromethyl)-2-pyridyl]amino]pyrazine-2-carbonitrile]
- IC50 (HT29 cells [1]): 18 nM

Structure (SMILES): COCCOc1ccc(-c2cnc(Nc3cnc(C#N)cn3)cc2NC[C@H]2CNCCO2)cc1 [Compound Y-157]
- Cell Efficacy + SN38 in HT29 cells (Potentiation Index) (HT29 cells [3]): 2 fold
- (fold better) Compound 1, cellular selectivity (HT29 cells [2]): ~4.1 fold
- (fold better) Compound 2, cellular selectivity (HT29 cells [2]): ~24 fold
- IC50 (HT29 cells [1]): 600 nM
- (fold better) Compound 1, CHK1 cellular potency MIA (HT29 cells [1]): ~20 fold
- (fold better) Compound 2, CHK1 cellular potency MIA (HT29 cells [1]): ~33 fold

Structure (SMILES): COCCOc1ccc(-c2cnc(Nc3cnc(C#N)cn3)cc2NC[C@@H]2CNCCO2)cc1 [Compound Y-149]
- (fold better) Compound 1, cellular selectivity (HT29 cells [2]): ~7.4 fold
- (fold better) Compound 2, cellular selectivity (HT29 cells [2]): ~43 fold
- IC50 (HT29 cells [1]): 1100 nM
- (fold better) Compound 1, CHK1 cellular potency MIA (HT29 cells [1]): ~34 fold
- (fold better) Compound 2, CHK1 cellular potency MIA (HT29 cells [1]): ~61 fold

Structure (SMILES): COCc1ccc(-c2cnc(Nc3cnc(C#N)cn3)cc2NC[C@@H]2CNCCO2)cc1 [Compound Y-148]
- (fold better) Compound 1, cellular selectivity (HT29 cells [2]): ~5.9 fold
- (fold better) Compound 2, cellular selectivity (HT29 cells [2]): ~34 fold
- IC50 (HT29 cells [1]): 900 nM
- (fold better) Compound 1, CHK1 cellular potency MIA (HT29 cells [1]): ~30 fold
- (fold better) Compound 2, CHK1 cellular potency MIA (HT29 cells [1]): ~50 fold

Structure (SMILES): COCC#Cc1cnc(Nc2cnc(C#N)cn2)cc1NC[C@@H]1CNCCO1 [Compound Y-154]
- IC50 (HT29 cells [1]): 90 nM
